Results reported in patent US20210278408A1, “METHODS OF TREATMENT OF CANCER WITH SUBSTITUTED PYRROLE AND PYRAZOLE COMPOUNDS AND DIAGNOSIS OF CANCERS SUSCEPTIBLE TO TREATMENT WITH SUBSTITUTED PYRROLE AND PYRAZOLE COMPOUNDS” (Bantam Pharmaceutical, LLC, priority 2018, published 2021).

System: ATF4, ATF6, ERN1/XBP1 and cell cycle regulated genes
Assay: mRNA expression profiling by QPCR in NHLF, HCT-116, HAP1 and SU-DHL-2
Assay type: cell-based, human
Conditions: 5 μM, 8 hrs
Method: FIG. 11 is a graph of expression of ATF4, ATF6, Xbp1, and cell cycle regulated genes in Compound A197 responsive cell lines. All cells were treated with 5 […] Compound A197 for 8 hrs, then RNA was isolated and specific gene expression determined by qPCR. All data are represented as Log2 Fc. *=p<0.05, n=3.
ATF4-mediated gene expression profile is induced by compounds. ATF4 activation is closely aligned with activation of ER stress and the related TF's ATF6, ERN1 and XBP1. To determine the role of each transcription factor, a set of fifteen genes were selected to evaluate the specificity of the response as related ATF4 and to other transcription factors. […] These genes can be regulated in a variety of ways and so reflect an outcome of compound action: cell cycle arrest.
Four cell lines were chosen for gene expression profiling. Normal Human Lung Fibroblasts were chosen as an example of a non-responsive cell line. The colorectal cancer cell line HCT-116 and the chronic myelogenous leukemia line HAP1 were chosen as examples of cell lines responsive to compound undergoing growth arrest. The diffuse large B-Cell lymphoma line SU-DHL-2 was chosen as a cell line undergoing growth arrest and apoptosis. […] RNA recovery is determined using a NanoDrop nucleic acid quantification device. […] The change in gene expression relative to vehicle is calculated using Expression Analysis software (ThermoFisher).

Cc1nn(-c2nc(-c3ccc(C(F)(F)F)cc3)c(SC(C)C)s2)c(C(=O)O)c1-c1cccc(F)c1 [Compound A197, 4-(3-fluorophenyl)-1-(5-(isopropylthio)-4-(4-(trifluoromethyl)phenyl)thiazol-2-yl)-3-methyl-1H-pyrazole-5-carboxylic acid]
CDKN1A (p21/Waf1) mRNA expression: increased | induction of ATF4, ATF6 or IRE1/Xbp1 regulated genes (HCT-116, HAP-1, SU-DHL-2, NHLF): preferentially induces ATF4, but not ATF6 or IRE1/Xbp1 regulated genes in three responsive tumor cell lines (HCT-116, HAP-1 and SU-DHL-2) but not in primary NHLF
